Experiment: Pharmacokinetics/biodistribution of [14C]-tagged doxorubicin and vectorized doxorubicin in plasma and organs after intravenous injection in mice;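 note: radioactivity counted in plasma and organs of mice killed 1 to 60 min post-dose, converted to percentage of product per organ, five animals per time point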
Conditions: i.v., 1 mg/kg doxorubicin equivalent, 14C radioactivity
Description: About 0.6-1 microcurie was injected per animal. The doxorubicin was tagged with carbon 14 (specific activity 55 mCi/mmol). After the indicated time periods (1, 5, 15, 30, 60 minutes), the mice were sacrificed. The organs (lungs, liver, brain, kidneys, etc.) and the plasma were then collected and counted. The quantity of radioactivity in each organ was then expressed as quantity of product per gram of organ. In this study, five mice were used for each time period.
After injection of the doxorubicin or the vectorized doxorubicin, we compared the pharmacokinetics/biodistribution of the products in the plasma and the different organs. The quantity of each product was expressed as percentage of product per organ.

Structure (SMILES): COc1cccc2c1C(=O)c1c(O)c3c(c(O)c1C2=O)C[C@@](O)(C(=O)CO)C[C@@H]3O[C@H]1C[C@H](N)[C@H](O)[C@H](C)O1 [compound 1, doxorubicin]
- Percentage of product in Brain after intravenous injection (time 1 minute): 0.06%
- Percentage of product in Heart after intravenous injection (time 1 minute): 0.58%
- Percentage of product in Kidneys after intravenous injection (time 1 minute): 3.37%
- Percentage of product in Liver after intravenous injection (time 1 minute): 17.81%
- Percentage of product in Lungs after intravenous injection (time 1 minute): 1.30%
- Percentage of product in Plasma after intravenous injection (time 1 minute): 1.84%
- Percentage of product in Brain after intravenous injection (time 5 minutes): 0.03%
- Percentage of product in Heart after intravenous injection (time 5 minutes): 0.52%
- Percentage of product in Kidneys after intravenous injection (time 5 minutes): 5.58%
- Percentage of product in Liver after intravenous injection (time 5 minutes): 23.02%
- Percentage of product in Lungs after intravenous injection (time 5 minutes): 1.24%
- Percentage of product in Plasma after intravenous injection (time 5 minutes): 0.53%
- Percentage of product in Brain after intravenous injection (time 15 minutes): 0.03%
- Percentage of product in Heart after intravenous injection (time 15 minutes): 0.54%
- Percentage of product in Kidneys after intravenous injection (time 15 minutes): 5.24%
- Percentage of product in Liver after intravenous injection (time 15 minutes): 20.22%
- Percentage of product in Lungs after intravenous injection (time 15 minutes): 1.14%
- Percentage of product in Plasma after intravenous injection (time 15 minutes): 0.34%
- Percentage of product in Brain after intravenous injection (time 30 minutes): 0.02%
- Percentage of product in Heart after intravenous injection (time 30 minutes): 0.45%
- Percentage of product in Kidneys after intravenous injection (time 30 minutes): 4.48%
- Percentage of product in Liver after intravenous injection (time 30 minutes): 19.70%
- Percentage of product in Lungs after intravenous injection (time 30 minutes): 1.03%
- Percentage of product in Plasma after intravenous injection (time 30 minutes): 0.19%
- Percentage of product in Brain after intravenous injection (time 60 minutes): 0.02%
- Percentage of product in Heart after intravenous injection (time 60 minutes): 0.36%
- Percentage of product in Kidneys after intravenous injection (time 60 minutes): 2.43%
- Percentage of product in Liver after intravenous injection (time 60 minutes): 17.80%
- Percentage of product in Lungs after intravenous injection (time 60 minutes): 0.85%
- Percentage of product in Plasma after intravenous injection (time 60 minutes): 0.18%

Source: patent US20050159360A1, “Compositions for the transport of therapeutic molecules into the lungs and use thereof for the treatment of lung cancers and pulmonary diseases” (SYNT:EM, a corporation of France, priority 2002, published 2005)
